Results from US5733912A, “7A-heterocycle substituted hexahydro-1H-pyrrolizine compounds useful in controlling chemical synaptic transmission” (Abbott Laboratories, priority 1997, dated 1998).
Counter-ions that a name gives are not always drawn.

Experiments:
[1] = target: neuronal nicotinic acetylcholine receptors; assay: Displacement of [3H]-cytisine from nicotinic acetylcholine receptors, crude synaptic membrane preparations from whole rat brain; conditions: [3H]-cytisine 1.25 nM, whole rat brain membranes, 60 minutes at 4° C.; IC50 converted to Ki by Cheng and Prusoff; read-out: Binding to Neuronal Nicotinic Acetylcholine Receptors (Binding)
Protocol: For the purpose of identifying compounds as cholinergic agents which are capable of interacting with nicotinic acetylcholine receptors in the brain, a ligand-receptor binding assay was carried out as the initial screen. Compounds of the present invention were effective at interacting with neuronal nicotinic acetylcholine receptors as assayed for their ability to displace radioligand from neuronal nicotinic acetylcholine channel receptors labeled with [^3 H]-cytisine ([^3 H]-CYT).
Displacement of [^3 H]-CYT from nicotinic acetylcholine receptors was determined using crude synaptic membrane preparations from whole rat brain (Pabreza et al., Molecular Pharmacol., 1990, 39: 9). Washed membranes were stored at -80° C. prior to use. Frozen aliquots were slowly thawed and resuspended in 20 volumes of buffer (containing: 120 mM NaCl, 5 mM KCl, 2 mM MgCl2, 2 mM CaCl2 and 50 mM Tris-Cl, pH 7.4 @4° C.). After centrifuging at 20,000×g for 15 minutes, the pellets were resuspended in 30 volumes of buffer. Homogenate (containing 125-150 μg protein) was added to triplicate tubes containing concentrations of test compound and [^3 H]-CYT (1.25 nM) in a final volume of 500 μL. Samples were incubated for 60 minutes at 4° C., then rapidly filtered through Whatman GF/B filters presoaked in 0.5% polyethylimine using 3×4 mL of ice-cold buffer. The filters are counted in 4 mL of Ecolume® (ICN). Nonspecific binding was determined in the presence of 10 μM (-)-nicotine and values were expressed as a percentage of total binding.

[2] = system: neuronal nicotinic acetylcholine receptors; assay: 86Rb+ efflux assay in IMR-32 human neuroblastoma cells (activation or inhibition of neuronal nicotinic acetylcholine receptors); format: cell-based; conditions: for IMR-32 % response (conc.): relative to the response elicited by 100 μM (S)-nicotine; for IMR-32 % Inhibition (conc.): inhibition of the efflux elicited by 100 μM (S)-nicotine
Protocol: Cells of the IMR-32 human neuroblastoma clonal cell line (ATCC, Rockville, Md.) were maintained in a log phase of growth according to established procedures (Lukas, 1993). Experimental cells were seeded at a density of 500,000 cells/mL into a 24-well tissue culture dish. Plated cells were allowed to proliferate for at least 48 hours before loading with 2 μCi/mL of ^86 Rb^+ (35 Ci/mmol) overnight at 37° C. The ^86 Rb^+ efflux assays were performed according to previously published protocols (Lukas, R. J., J. Pharmacol. Exp. Ther., 265: 294-302, 1993) except serum-free Dulbecco's Modified Eagle's Medium was used during the ^86 Rb^+ loading, rinsing, and agonist-inducedefflux steps.
Responses (reported as percent relative to the response elicited by 100 μM (S)-nicotine) are shown for the indicated concentrations of selected compounds of the invention. The inhibition data (given for other selected compounds) reflect inhibition of the efflux elicited by 100 μM (S)-nicotine at the indicated concentration. […] This finding is in agreement with the results of others who have linked dopamine release, which is dependent upon the ion flux in synaptic transmission, to binding at nicotinic receptors (cf., for example, Lippiello and Caldwell, U.S. Pat. No. 5,242,935, issued Sep. 7, 1993; Caldwell and Lippiello, U.S. Pat. No. 5,248,690, issued Sep. 28, 1993; and Wonnacott et al., Prog. Brain Res., 79: 157-163 (1989)).

Row | SMILES | Ki [1] [nM] | IMR-32 % response (conc.) ([2]; 10 μM) [%] | IMR-32 % response (conc.) ([2]; 1 μM) [%] | IMR-32 % response (conc.) ([2]; 100 μM) [%] | IMR-32 % Inhibition (conc.) ([2]; 10 μM) [%]
1 | Cc1cc(C23CCCN2CCC3)on1.Cl [Example 1, 7a-(3-methyl-5-isoxazolyl)-hexahydro-1H-pyrrolizine hydrochloride] | 0.97 | 110 | – | – | –
2 | Cc1cc(C23CCCN2CCC3)[nH]n1 [Example 2, 7a-(1H-3-methyl-5-pyrazolyl)-hexahydro-1H-pyrrolizine dihydrochloride] | 70 | – | – | – | –
3 | Cl.c1cncc(C23CCCN2CCC3)c1 [Example 3, 7a-(3-pyridinyl)-hexahydro-1H-pyrrolizine hydrochloride] | 0.38 | 71 | – | – | –
4 | Cl.Cl.c1ccc2ncc(C34CCCN3CCC4)cc2c1 [Example 4, 7a-(3-quinolinyl)-hexahydro-1H-pyrrolizine dihydrochloride] | 4.3 | 40 | – | – | –
5 | Cl.Clc1ccc(C23CCCN2CCC3)cn1 [Example 5, 7a-(6-chloro-3-pyridinyl)-hexahydro-1H-pyrrolizine hydrochloride] | 0.1 | – | 82 | – | –
6 | Fc1ncccc1C12CCCN1CCC2 [Example 6, 7a-(2-fluoro-3-pyridinyl)-hexahydro-1H-pyrrolizine hydrochloride salt] | 5.7 | – | – | – | –
7 | Clc1ncccc1C12CCCN1CCC2 [Example 7, 7a-(2-chloro-3-pyridinyl)-hexahydro-1H-pyrrolizine hydrochloride] | 436 | – | – | – | –
8 | Cl.Clc1cc(C23CCCN2CCC3)cnc1Cl [Example 8, 7a-(5,6-dichloro-3-pyridinyl)-hexahydro-1H-pyrrolizine hydrochloride] | 0.055 | – | 71 | – | –
9 | Cl.c1ncc(C23CCCN2CCC3)cn1 [Example 9, 7a-(5-pyrimidinyl)-hexahydro-1H-pyrrolizine hydrochloride] | 3.7 | – | – | 39 | –
10 | Cl.Fc1ccc(C23CCCN2CCC3)c(F)n1 [Example 10, 7a-(2,6-difluoro-3-pyridinyl)-hexahydro-1H-pyrrolizine hydrochloride] | 2.9 | 13 | – | – | 12
11 | Clc1ccc(C23CCCN2CCC3)c(Cl)n1 [Example 11, 7a-(2,6-dichloro-3-pyridinyl)-hexahydro-1H-pyrrolizine hydrochloride salt] | 1420 | – | – | – | –
12 | Cl.Fc1ccc(C23CCCN2CCC3)cn1 [Example 12, 7a-(6-fluoro-3-pyridinyl)-hexahydro-1H-pyrrolizine hydrochloride salt] | 0.27 | 93 | – | – | –
13 | CCc1cc(C23CCCN2CCC3)on1.Cl [Example 13, 7a-(3-ethyl-5-isoxazolyl)-hexahydro-1H-pyrrolizine hydrochloride salt] | 1.4 | – | – | 108 | –
14 | CCCc1cc(C23CCCN2CCC3)on1.Cl [Example 14, 7a-(3-propyl-5-isoxazolyl)-hexahydro-1H-pyrrolizine hydrochloride salt] | 1.7 | – | – | 74 | –
15 | c1ccc(Cc2cc(C34CCCN3CCC4)on2)cc1 [Example 15, 7a-(3-benzyl-5-isoxazolyl)-hexahydro-1H-pyrrolizine hydrochloride salt] | 4 | – | – | – | –
16 | Cl.Oc1cncc(C23CCCN2CCC3)c1 [Example 16, 7a-(3-hydroxy-5-pyridinyl)-hexahydro-1H-pyrrolizine hydrochloride salt] | 1.4 | – | – | 53 | –
17 | c1ccc(COc2cncc(C34CCCN3CCC4)c2)cc1 [Example 16b, 7a-(3-benzyloxy-5-pyridinyl)-hexahydro-1H-pyrrolizine] | 0.27 | – | – | – | –
18 | Brc1cncc(C23CCCN2CCC3)c1.Cl [Example 17, 7a-(5-bromo-3-pyridinyl)-hexahydro-1H-pyrrolizine hydrochloride salt] | 0.61 | 41 | – | – | –
19 | Cc1cc(C23CCCN2CCC3)cnc1F.Cl [Example 18, 7a-(6-fluoro-5-methyl-3-pyridinyl)hexahydro-1H-pyrrolizine hydrochloride salt] | 0.11 | 66 | – | – | –
20 | Cc1cc(C23CCCN2CCC3)cnc1Cl.Cl [Example 19, 7a-(6-chloro-5-methyl-3-pyridinyl)-hexahydro-1H-pyrrolizine hydrochloride salt] | 0.05 | – | 91 | – | –
21 | Cc1ccc(C23CCCN2CCC3)cn1.Cl [Example 20, 7a-(6-methyl-3-pyridinyl)-hexahydro-1H-pyrrolizine hydrochloride salt] | 0.56 | – | 98 | – | –
22 | Cc1cncc(C23CCCN2CCC3)c1.Cl [Example 21, 7a-(5-methyl-3-pyridinyl)-hexahydro-1H-pyrrolizine hydrochloride salt] | 0.33 | – | 56 | – | –
23 | Cl.Fc1ncc(C23CCCN2CCC3)cc1Br [Example 22, 7a-(5-bromo-6-fluoro-3-pyridinyl)-hexahydro-1H-pyrrolizine hydrochloride salt] | 0.22 | 42 | – | – | –
24 | Cl.Fc1ncc(C23CCCN2CCC3)cc1Cl [Example 23, 7a-(5-chloro-6-fluoro-3-pyridinyl)-hexahydro-1H-pyrrolizine hydrochloride salt] | 0.23 | 68 | – | – | –
25 | Cc1ccncc1C12CCCN1CCC2.Cl [Example 24, 7a-(4-methyl-3-pyridinyl)-hexahydro-1H-pyrrolizine hydrochloride salt] | 72 | – | – | 0 | 14
26 | c1ccc(-c2cncc(C34CCCN3CCC4)c2)cc1 [Example 25, 7a-(5-phenyl-3-pyridinyl)-hexahydro-1H-pyrrolizine hydrochloride salt] | 0.25 | – | – | – | –
